The results in this text go back to patent US20060079550A1, “Amino acid derivatives useful for the treatment of alzheimer's disease” (priority 2001, published 2006).

The term Ki denotes the dissociation constant of the complex between target and ligand, obtained from inhibition or displacement.

The assay has as its target aspartyl proteases, in particular, beta-secretase. Put plainly: Ki of the compounds listed in Tables 1 and 2 (no method described). The format is biochemical. The following applies: Table 1, compounds of formula Ia, W is -(CH2)n-.
As to `Cc1ccc(S(=O)(=O)N(CC(C)C)[C@@H](CCCCNC(=O)OCc2ccccc2)C(=O)OCc2ccccc2)cc1` [Compound No. 75, Nα-isobutyl-Nα-(4-methylbenzenesulfonyl)-Nε-benzyloxycarbonyl-L-lysine Benzyl Ester], the Ki is > 1.25 µM.
With `CC(C)CN([C@@H](CCCCNC(=O)/C=C/c1cccnc1)C(=O)O)S(=O)(=O)c1ccc([N+](=O)[O-])cc1` [Compound No. 164, Nα-isobutyl-Nα-(4-nitrobenzenesulfonyl)-Nε-(trans-3-(3-pyridyl)acryloyl)-L-lysine], the Ki is > 0.3 µM.
To `O=C(N[C@@H](CCNS(=O)(=O)c1ccc(Br)cc1)C(=O)O)OCC1c2ccccc2-c2ccccc21` [Compound No. 14, (S)-2-(9-fluorenylmethoxycarbonylamino)-4-(4-bromobenzenesulfonylamino)-butanoic Acid] belongs 49 µM; to `COc1ccc(CCC(=O)NCCCC[C@@H](C(=O)O)N(CC(C)C)S(=O)(=O)c2ccc(N)cc2)cc1` [Compound No. 120, Nα-isobutyl-Nα-(4-aminobenzenesulfonyl)-Nε-(4-methoxydihydrocinnamoyl)-L-lysine], 0.0124 µM; to `Cc1ccc(S(=O)(=O)N(CC(C)C)[C@@H](CCCCNC(=O)CC2c3ccccc3-c3ccccc32)C(=O)O)cc1` [compound 84], 0.0897 µM.
`O=C(N[C@@H](CCCNS(=O)(=O)c1ccc([N+](=O)[O-])cc1)C(=O)O)OCC1c2ccccc2-c2ccccc21` [Compound No. 62, Nδ-(4-nitrobenzenesulfonyl)-Nα-(9-fluorenylmethoxycarbonyl)-L-ornithine] came in with an inhibition constant (Ki) of 26.2 µM.
For the compound `O=C(N[C@@H](CCCCNS(=O)(=O)c1ccc(F)cc1)C(=O)O)OCC1c2ccccc2-c2ccccc21` [Compound No. 55, Nε-(4-fluorobenzenesulfonyl)-Nα-(9-fluorenylmethoxycarbonyl)-L-lysine], the Ki came to 6.5 µM.
In the case of `Cc1ccc(S(=O)(=O)N(CC(C)C)[C@@H](CCCCNC(=O)C2c3ccccc3Oc3ccccc32)C(=O)O)cc1` [compound 85], the inhibition constant (Ki) stood at 0.0145 µM.
To `Cc1ccc(S(=O)(=O)N(CC(C)C)[C@@H](CCCCNC(=O)c2c[nH]c3ccccc23)C(=O)O)cc1` [compound 87] belongs > 1.25 µM.
`O=C(O)[C@H](CCCCNS(=O)(=O)c1ccc(Br)cc1)NC(=O)C(O)(c1ccccc1)c1ccccc1` [Compound No. 37, Nα-(diphenylhydroxyacetyl)-Nε-(4-bromobenzenesulfonyl)-L-lysine] registered a Ki of 54 µM.
Consider `O=C(NCCCC[C@H](NS(=O)(=O)c1ccccc1[N+](=O)[O-])C(=O)O)OCC1c2ccccc2-c2ccccc21` [Compound No. 70, Nα-(2-nitrobenzenesulfonyl)-Nε-(9-fluorenylmethoxycarbonyl)-L-lysine], for which the Ki is > 12.5 µM.
`CC(C)CN([C@@H](CCCCNC(=O)CCc1cccc(N)c1)C(=O)O)S(=O)(=O)c1ccc(N)cc1` [Compound No. 118, Nα-isobutyl-Nα-(4-aminobenzenesulfonyl)-Nε-(3-aminodihydrocinnamoyl)-L-lysine]: the inhibition constant Ki worked out at 0.0205 µM.
For the compound `COc1ccc(C=CC(=O)NCCCC[C@@H](C(=O)O)N(CC(C)C)S(=O)(=O)c2ccc([N+](=O)[O-])cc2)cc1` [Compound No. 113, Nα-isobutyl-Nα-(4-nitrobenzenesulfonyl)-Nε-(4-methoxycinnamoyl)-L-lysine], the Ki was > 0.3 µM.
With `COc1cccc(C=CC(=O)NCCCC[C@@H](C(=O)O)N(CC(C)C)S(=O)(=O)c2ccc([N+](=O)[O-])cc2)c1OC` [compound 110, Nα-isobutyl-Nα-(4-nitrobenzenesulfonyl)-Nε-(2,3-dimethoxycinnamoyl)-L-lysine], the Ki was > 0.3 µM.
To `Cc1ccc(S(=O)(=O)N(CC2CC2)[C@@H](CCCCNC(=O)OCC2c3ccccc3-c3ccccc32)C(=O)O)cc1` [Compound No. 43, Nα-cyclopropylmethyl-Nα-(4-methylbenzenesulfonyl)-Nε-(9-fluorenylmethoxycarbonyl)-L-lysine] belongs 0.0039 µM.
`COc1ccc(S(=O)(=O)N[C@@H](CCCCNC(=O)OCC2c3ccccc3-c3ccccc32)C(=O)O)cc1` [Compound No. 104, Nα-(4-methoxylbenzenesulfonyl)-Nε-(9-fluorenylmethoxycarbonyl)-L-lysine]: the inhibition constant Ki amounted to 3.16 µM.
Compound `O=C(N[C@@H](CCCCNS(=O)(=O)c1ccc(Br)cc1)C(=O)O)C1c2ccccc2-c2ccccc21` [Compound No. 38, Nα-(9-fluorenecarbonyl)-Nε-(4-bromobenzenesulfonyl)-L-lysine] showed an inhibition constant (Ki) of 4.7 µM.
In the case of `Nc1ccccc1S(=O)(=O)N[C@@H](CCCCNC(=O)OCC1c2ccccc2-c2ccccc21)C(=O)O` [Compound No. 105, Nα-(2-aminobenzenesulfonyl)-Nε-(9-fluorenylmethoxycarbonyl)-L-lysine] it was 16 µM.
Regarding `CC(C)CN([C@@H](CCCCNC(=O)C=Cc1ccc2c(c1)OCO2)C(=O)O)S(=O)(=O)c1ccc([N+](=O)[O-])cc1` [Compound No. 163, Nα-isobutyl-Nα-(4-nitrobenzenesulfonyl)-Nε-(3,4-methylenedioxycinnamoyl)-L-lysine], the Ki was > 0.3 µM.
Regarding `Cc1ccc(S(=O)(=O)N(CC(C)C)C(CCCCNC(=S)CCc2ccccc2)C(=O)O)cc1` (racemic) [Compound No. 153, Nα-isobutyl-Nα-(4-methylbenzenesulfonyl)-Nε-dihydrothiocinnamoyi-DL-lysine], the affinity corresponds to a Ki of 0.151 µM.
Compound `O=C(NCCCC[C@H](NS(=O)(=O)c1cccc2ccccc12)C(=O)O)OCC1c2ccccc2-c2ccccc21` [Compound No. 102, Nα-(1-naphthalenesulfonyl)-Nε-(9-fluorenylmethoxycarbonyl)-L-lysine] had an inhibition constant (Ki) of 2.32 µM.
`O=C(N[C@@H](CCCCNS(=O)(=O)Cc1ccccc1)C(=O)O)OCC1c2ccccc2-c2ccccc21` [Compound No. 33, Nε-phenylmethylsulfonyl-Nα-(9-fluorenylmethoxycarbonyl)-L-lysine] showed a Ki of 20 µM.
To `O=C(O)[C@H](CCCNS(=O)(=O)c1ccc(Br)cc1)NS(=O)(=O)c1ccc(Br)cc1` [Compound No. 57, Nα,Nε-di-(4-bromobenzenesulfonyl)-L-ornithine] belongs 42.4 µM; to `CC(C)CN([C@@H](CCCCNC(=O)COc1ccccc1)C(=O)O)S(=O)(=O)c1ccc([N+](=O)[O-])cc1` [Compound No. 160, Nα-isobutyl-Nα-(4-nitrobenzenesulfonyl)-Nε-phenoxyacetyl-L-lysine], 0.0245 µM; to `O=C(O)[C@H](CCCCN(Cc1ccc(F)cc1)S(=O)(=O)c1ccc(Br)cc1)NS(=O)(=O)c1ccc(Br)cc1` [Compound No. 60, Nα,Nε-di-(4-bromobenzenesulfonyl)-Nε-(4-fluorobenzyl)-L-lysine], > 50 µM.
Turning to `Cc1ccc(S(=O)(=O)N(CC(C)C)C(CCCCNC(=O)OCC2c3ccccc3-c3ccccc32)C(=O)NO)cc1` [Compound No. 141, (2R,2S)-N-isobutyl-N-(4-methylbenzenesulfonylamino)-6-(9-fluorenylmethoxycarboxylamino)-1-hydroxylhexamide], the inhibitory constant (Ki) came to 0.245 µM.
In the case of `Nc1ccc(S(=O)(=O)N[C@@H](CCCCNC(=O)OCC2c3ccccc3-c3ccccc32)C(=O)O)cc1` [Compound No. 106, Nα-(4-aminobenzenesulfonyl)-Nε-(9-fluorenylmethoxycarbonyl)-L-lysine], the inhibition constant (Ki) is 4.49 µM.
Take `O=C(NCCCC[C@H](NS(=O)(=O)c1ccc(Cl)cc1)C(=O)O)OCC1c2ccccc2-c2ccccc21` [Compound No. 72, Nα-(4-chlorobenzenesulfonyl)-Nε-(9-fluorenylmethoxycarbonyl)L-lysine]: the Ki came out at 2.39 µM.
Take `O=C(N[C@@H](CCCCNS(=O)(=O)c1ccc(Cl)cc1)C(=O)O)OCC1c2ccccc2-c2ccccc21` [Compound No. 53, Nε-(4-chlorobenzenesulfonyl)-Nα-(9-fluorenylmethoxycarbonyl)-L-lysine]: affinity was put at a Ki of 4.8 µM.
For the compound `COc1cccc(CCC(=O)NCCCC[C@@H](C(=O)O)N(CC(C)C)S(=O)(=O)c2ccc(N)cc2)c1OC` [Compound No. 119, Nα-isobutyl-Nα-(4-aminobenzenesulfonyl)-Nε-(2,3-dimethoxydihydrocinnamoyl)-L-lysine], the affinity, expressed as Ki, was 0.0062 µM.
Regarding `CC(C)CN(C(CCCCNC(=O)OCC1c2ccccc2-c2ccccc21)C(=O)O)S(=O)(=O)c1ccc(Cl)cc1` (racemic) [Compound No. 1, Nα-isobutyl-Nα-(4-chlorobenzenesulfonyl)-Nε-(9-fluorenylmethoxycarbonyl)-DL-lysine], the inhibitory constant (Ki) was 0.0205 µM.
To `CC(C)CN([C@@H](CCCCNC(=O)C=Cc1ccc([N+](=O)[O-])cc1)C(=O)O)S(=O)(=O)c1ccc([N+](=O)[O-])cc1` [Compound No. 111, Nα-isobutyl-Nα-(4-nitrobenzenesulfonyl)-Nε-(4-nitrocinnamoyl)-L-lysine] belongs 0.0344 µM; to `Cc1ccc(S(=O)(=O)N(CC(C)C)C(CCCCNC(=O)C2c3ccccc3-c3ccccc32)C(=O)O)cc1` (stereo not drawn) [compound 83], 0.105 µM.
In the case of `O=C(O)[C@H](CCCCNS(=O)(=O)c1ccc(Br)cc1)NS(=O)(=O)c1ccc(Br)cc1` [Compound No. 17, Nα,Nε-di-(4-bromobenzenesulfonyl)-L-lysine], the Ki amounted to 7.7 µM.
In the case of `Cc1ccc(S(=O)(=O)N(CC(C)C)[C@@H](CCCCNC(=O)C(c2ccccc2)c2ccccc2)C(=O)O)cc1` [compound 86] it was 0.171 µM; in that of `O=C(CC1c2ccccc2-c2ccccc21)N[C@@H](CCCCNS(=O)(=O)c1ccc(Br)cc1)C(=O)O` [Compound No. 30, Nα-(9-fluorenemethylcarbonyl)-Nε-(4-bromobenzenesulfonyl)-L-lysine], 71 µM.
For the compound `COc1ccc(S(=O)(=O)N(CC(C)C)[C@@H](CCCCNC(=O)OCC2c3ccccc3-c3ccccc32)C(=O)O)cc1` [Compound No. 7], the affinity corresponds to a Ki of 0.0106 µM.
In the case of `Cc1ccc(S(=O)(=O)N(CC(C)C)[C@@H](CCCCNC(=O)CCc2c[nH]c3ccccc23)C(=O)O)cc1` [compound 89] it was 0.0069 µM.
The compound `Cc1ccc(S(=O)(=O)NCCC[C@H](NC(=O)OCC2c3ccccc3-c3ccccc32)C(=O)O)cc1` [Compound No. 149, Nδ-(4-methylbenzenesulfonyl)-Nα-(9-fluorenylmethoxycarbonyl)-L-ornithine] came in with an inhibition constant Ki of 10.1 µM.
